Data: patent US12403172B2, “Composition for preventing, alleviating or treating metabolic syndrome accompanied by obesity and/or diabetes, containing, as active ingredient, complex (IB complex) of Indian gooseberry extract and sprout barley extract” (HLSCIENCE CO., LTD, priority 2019, dated 2025)
Marks after values point to notes of the source that are not given here.

Test system: obesity-induced mice from high fat diet
Assay: Body weight change of obesity-induced mice
Assay type: in vivo, C57BL/6J mice
Conditions: 60% high fat diet + Metformin 250 mg/kg b.w.
Experimental: The effect on the body weight change of obesity-induced mice from high fat diet of the complex of the Indian gooseberry extract and barley sprout extract of the present invention was confirmed. As an experimental animal, 4-week male C57BL/6J mice around 20 g were supplied from Saeron Bio Inc. (Uiwang-si, Korea). They were used for the experiment, after passing through the adaptation period for 1 week under the condition that the light and dark was 12 hours (light/dark cycle) and the temperature was 23±2° C. and the relative humidity was 50±5%. During the adaptation period, AIN-93G diet and drinking water were allowed to be consumed freely, and the body weight was measured to separate 8 mice per each group by the random method. At the end of the adaptation period, the sample intake was progressed as free diet intake for 15 weeks, and the dietary intake and body weight were measured every week, and after the end of the experiment, the weight gain was divided by the dietary intake (total food consumption)) for the same period to calculate the food efficiency ratio (FER). The classification of the experimental group and the composition of the experimental diet were shown in Table 5, and the equation of the diet efficiency was shown in the following equation 3. FER=weight gain (g)/total food consumption (g)×100 Equation 3

CN(C)C(=N)N=C(N)N [Met, Metformin]
Initial body weight: 19.26 ± 0.66 g
Final body weight (g) (15 weeks): 39.46 ± 2.16^d g
Food intake (g/day/mouse) (15 weeks): 2.66 ± 0.18^b g/day/mouse
Weight gain (g) (15 weeks): 20.20 ± 1.89^c g
FER (food efficiency ratio) (weight gain/total food consumption x100): 7.25 ± 0.68^c
